Source: the NIST ThermoML archive (doi:10.1016/j.jct.2019.01.007)
Values joined by “and” are separate entries in the source; they are usually repeats but may differ in a detail not shown here. Identical values can stand only once. Numbers after ± are expanded uncertainties.

Conditions: Liquid

CCCCCCCCCCC(=O)OC [methyl undecanoate]
vapor or sublimation pressure (305.25 K): 0.003577 ± 4.5e-05 kPa | vapor or sublimation pressure (307.81 K): 0.004504 ± 5.6e-05 kPa | vapor or sublimation pressure (310.15 K): 0.005571 ± 6.9e-05 kPa | vapor or sublimation pressure (312.67 K): 0.006957 ± 8.6e-05 kPa | vapor or sublimation pressure (315.06 K): 0.008553 ± 0.00011 kPa | vapor or sublimation pressure (317.52 K): 0.01055 ± 0.00013 kPa | vapor or sublimation pressure (319.94 K): 0.01283 ± 0.0002 kPa | vapor or sublimation pressure (322.42 K): 0.01574 ± 0.00022 kPa | vapor or sublimation pressure (324.82 K): 0.019 ± 0.00026 kPa | vapor or sublimation pressure (327.29 K): 0.02304 ± 0.00031 kPa | vapor or sublimation pressure (329.69 K): 0.02778 ± 0.00036 kPa | vapor or sublimation pressure (332.16 K): 0.03345 ± 0.00043 kPa | vapor or sublimation pressure (334.54 K): 0.03987 ± 0.00051 kPa | vapor or sublimation pressure (337.03 K): 0.04783 ± 0.00061 kPa | vapor or sublimation pressure (339.43 K): 0.05689 ± 0.00072 kPa | vapor or sublimation pressure (341.91 K): 0.06735 ± 0.00085 kPa

CCCCCCCCCCCC(=O)OC [methyl dodecanoate]
vapor or sublimation pressure (323.8 K, Transpiration method): 0.00609 ± 0.0012 kPa | vapor or sublimation pressure (325.9 K, Transpiration method): 0.00701 ± 0.0014 kPa | vapor or sublimation pressure (327.9 K, Transpiration method): 0.00853 ± 0.0017 kPa | vapor or sublimation pressure (329.9 K, Transpiration method): 0.00982 ± 0.002 kPa | vapor or sublimation pressure (331.8 K, Transpiration method): 0.0113 ± 0.0023 kPa | vapor or sublimation pressure (333.9 K, Transpiration method): 0.0134 ± 0.0027 kPa | vapor or sublimation pressure (335.7 K, Transpiration method): 0.0164 ± 0.0033 kPa | vapor or sublimation pressure (338.7 K, Transpiration method): 0.0198 ± 0.004 kPa | vapor or sublimation pressure (340.7 K, Transpiration method): 0.0228 ± 0.0046 kPa | vapor or sublimation pressure (344.1 K, Transpiration method): 0.0291 ± 0.0059 kPa | vapor or sublimation pressure (345.9 K, Transpiration method): 0.0331 ± 0.0067 kPa | vapor or sublimation pressure (349.3 K, Transpiration method): 0.0413 ± 0.0084 kPa | vapor or sublimation pressure (351.3 K, Transpiration method): 0.047 ± 0.0096 kPa | vapor or sublimation pressure (354.4 K, Transpiration method): 0.0603 ± 0.012 kPa | vapor or sublimation pressure (356.4 K, Transpiration method): 0.0682 ± 0.014 kPa | vapor or sublimation pressure (359.6 K, Transpiration method): 0.0828 ± 0.017 kPa | vapor or sublimation pressure (361.5 K, Transpiration method): 0.0952 ± 0.019 kPa | vapor or sublimation pressure (364.7 K, Transpiration method): 0.11 ± 0.022 kPa | vapor or sublimation pressure (366.7 K, Transpiration method): 0.132 ± 0.027 kPa | vapor or sublimation pressure (370 K, Transpiration method): 0.16 ± 0.033 kPa | vapor or sublimation pressure (371.8 K, Transpiration method): 0.178 ± 0.036 kPa | vapor or sublimation pressure (374.7 K, Transpiration method): 0.214 ± 0.044 kPa | vapor or sublimation pressure (378.6 K, Transpiration method): 0.263 ± 0.053 kPa | vapor or sublimation pressure (381.7 K, Transpiration method): 0.314 ± 0.064 kPa | vapor or sublimation pressure (386.8 K, Transpiration method): 0.412 ± 0.084 kPa | vapor or sublimation pressure (389.6 K, Transpiration method): 0.491 ± 0.1 kPa | vapor or sublimation pressure (391.9 K, Transpiration method): 0.534 ± 0.11 kPa | vapor or sublimation pressure (394.9 K, Transpiration method): 0.635 ± 0.13 kPa | vapor or sublimation pressure (397 K, Transpiration method): 0.694 ± 0.14 kPa | vapor or sublimation pressure (399.2 K, Transpiration method): 0.774 ± 0.16 kPa | vapor or sublimation pressure (401.3 K, Transpiration method): 0.898 ± 0.18 kPa

CCCCCCCCCCCCCCCC(=O)OC [methyl hexadecanoate]
vapor or sublimation pressure (308.12 K): 2.814e-05 ± 3.2e-06 kPa | vapor or sublimation pressure (312 K): 4.574e-05 ± 3.3e-06 kPa | vapor or sublimation pressure (312.96 K): 5.318e-05 ± 3.3e-06 kPa | vapor or sublimation pressure (312.97 K): 4.817e-05 ± 3.3e-06 kPa | vapor or sublimation pressure (314.42 K): 5.995e-05 ± 3.3e-06 kPa | vapor or sublimation pressure (315.4 K): 6.903e-05 ± 3.3e-06 kPa | vapor or sublimation pressure (316.85 K): 7.591e-05 ± 3.3e-06 kPa | vapor or sublimation pressure (317.81 K): 8.232e-05 ± 3.3e-06 kPa | vapor or sublimation pressure (317.82 K): 8.757e-05 ± 3.3e-06 kPa | vapor or sublimation pressure (319.27 K): 0.0001 ± 3.4e-06 kPa | vapor or sublimation pressure (320.26 K): 0.0001123 ± 3.4e-06 kPa | vapor or sublimation pressure (321.71 K): 0.0001276 ± 3.4e-06 kPa | vapor or sublimation pressure (322.66 K): 0.0001426 ± 3.5e-06 kPa | vapor or sublimation pressure (322.67 K): 0.000144 ± 3.5e-06 kPa | vapor or sublimation pressure (324.12 K): 0.0001655 ± 3.5e-06 kPa | vapor or sublimation pressure (325.11 K): 0.0001853 ± 3.6e-06 kPa | vapor or sublimation pressure (326.56 K): 0.0002146 ± 3.7e-06 kPa | vapor or sublimation pressure (327.52 K): 0.0002379 ± 3.8e-06 kPa and 0.0002346 ± 3.8e-06 kPa | vapor or sublimation pressure (328.98 K): 0.0002676 ± 3.9e-06 kPa | vapor or sublimation pressure (329.96 K): 0.0002973 ± 4.1e-06 kPa | vapor or sublimation pressure (331.42 K): 0.0003403 ± 4.4e-06 kPa | vapor or sublimation pressure (332.37 K): 0.0003763 ± 4.9e-06 kPa and 0.000377 ± 4.9e-06 kPa | vapor or sublimation pressure (333.83 K): 0.000429 ± 5.5e-06 kPa | vapor or sublimation pressure (334.83 K): 0.0004701 ± 6e-06 kPa | vapor or sublimation pressure (336.28 K): 0.0005477 ± 7e-06 kPa | vapor or sublimation pressure (337.23 K): 0.0006044 ± 7.7e-06 kPa and 0.0005995 ± 7.6e-06 kPa | vapor or sublimation pressure (338.69 K): 0.0006834 ± 8.7e-06 kPa | vapor or sublimation pressure (339.69 K): 0.0007518 ± 9.5e-06 kPa | vapor or sublimation pressure (341.14 K): 0.0008558 ± 1.1e-05 kPa | vapor or sublimation pressure (342.09 K): 0.0009461 ± 1.2e-05 kPa and 0.0009339 ± 1.2e-05 kPa | vapor or sublimation pressure (343.55 K): 0.00107 ± 1.3e-05 kPa | vapor or sublimation pressure (344.55 K): 0.001176 ± 1.5e-05 kPa | vapor or sublimation pressure (345.01 K): 0.001226 ± 1.5e-05 kPa | vapor or sublimation pressure (346 K): 0.001334 ± 1.7e-05 kPa | vapor or sublimation pressure (346.95 K): 0.001462 ± 1.8e-05 kPa and 0.001463 ± 1.8e-05 kPa | vapor or sublimation pressure (348.41 K): 0.001655 ± 2.1e-05 kPa | vapor or sublimation pressure (349.41 K): 0.001817 ± 2.3e-05 kPa | vapor or sublimation pressure (349.87 K): 0.001888 ± 2.4e-05 kPa | vapor or sublimation pressure (350.86 K): 0.002055 ± 2.6e-05 kPa | vapor or sublimation pressure (351.82 K): 0.002257 ± 2.8e-05 kPa | vapor or sublimation pressure (353.27 K): 0.002528 ± 3.1e-05 kPa | vapor or sublimation pressure (354.29 K): 0.002774 ± 3.5e-05 kPa | vapor or sublimation pressure (354.73 K): 0.002884 ± 3.6e-05 kPa | vapor or sublimation pressure (355.73 K): 0.003112 ± 3.9e-05 kPa | vapor or sublimation pressure (356.67 K): 0.003414 ± 4.2e-05 kPa | vapor or sublimation pressure (358.13 K): 0.003814 ± 4.7e-05 kPa | vapor or sublimation pressure (359.16 K): 0.004171 ± 5.2e-05 kPa | vapor or sublimation pressure (359.59 K): 0.004332 ± 5.4e-05 kPa | vapor or sublimation pressure (359.63 K): 0.004286 ± 5.3e-05 kPa | vapor or sublimation pressure (360.59 K): 0.004673 ± 5.8e-05 kPa | vapor or sublimation pressure (361.55 K): 0.005107 ± 6.3e-05 kPa | vapor or sublimation pressure (363 K): 0.00565 ± 7e-05 kPa | vapor or sublimation pressure (364.02 K): 0.006171 ± 7.6e-05 kPa | vapor or sublimation pressure (364.45 K): 0.006382 ± 7.9e-05 kPa | vapor or sublimation pressure (364.49 K): 0.006315 ± 7.8e-05 kPa | vapor or sublimation pressure (365.45 K): 0.006842 ± 8.5e-05 kPa | vapor or sublimation pressure (366.41 K): 0.00747 ± 9.2e-05 kPa | vapor or sublimation pressure (367.87 K): 0.008233 ± 0.0001 kPa | vapor or sublimation pressure (368.87 K): 0.008934 ± 0.00011 kPa | vapor or sublimation pressure (369.32 K): 0.009208 ± 0.00011 kPa | vapor or sublimation pressure (371.29 K): 0.01071 ± 0.00013 kPa | vapor or sublimation pressure (371.74 K): 0.01102 ± 0.00014 kPa | vapor or sublimation pressure (372.64 K): 0.01169 ± 0.00015 kPa | vapor or sublimation pressure (372.73 K): 0.01183 ± 0.00015 kPa | vapor or sublimation pressure (375.03 K): 0.0139 ± 0.00021 kPa | vapor or sublimation pressure (377.49 K): 0.0166 ± 0.00023 kPa | vapor or sublimation pressure (379.9 K): 0.01941 ± 0.00026 kPa | vapor or sublimation pressure (382.34 K): 0.02319 ± 0.00031 kPa | vapor or sublimation pressure (384.76 K): 0.02705 ± 0.00035 kPa | vapor or sublimation pressure (387.21 K): 0.03214 ± 0.00042 kPa | vapor or sublimation pressure (389.66 K): 0.03772 ± 0.00049 kPa | vapor or sublimation pressure (392.06 K): 0.04434 ± 0.00057 kPa | vapor or sublimation pressure (394.52 K): 0.05191 ± 0.00066 kPa | vapor or sublimation pressure (396.92 K): 0.06045 ± 0.00077 kPa | vapor or sublimation pressure (399.39 K): 0.07078 ± 0.00089 kPa | vapor or sublimation pressure (401.78 K): 0.08154 ± 0.001 kPa | vapor or sublimation pressure (404.23 K): 0.09507 ± 0.0012 kPa | vapor or sublimation pressure (406.65 K): 0.1092 ± 0.0014 kPa | vapor or sublimation pressure (409.09 K): 0.1267 ± 0.0016 kPa | vapor or sublimation pressure (411.5 K): 0.1469 ± 0.0018 kPa | vapor or sublimation pressure (411.52 K): 0.1459 ± 0.0018 kPa | vapor or sublimation pressure (416.35 K): 0.1929 ± 0.0024 kPa | vapor or sublimation pressure (421.21 K): 0.2522 ± 0.0031 kPa | vapor or sublimation pressure (426.08 K): 0.3266 ± 0.004 kPa | vapor or sublimation pressure (428.52 K): 0.37 ± 0.0046 kPa | vapor or sublimation pressure (430.94 K): 0.4193 ± 0.0052 kPa
